Results reported in ChEMBL document CHEMBL1136927, “Nonsteroidal selective androgen receptor modulators (SARMs): dissociating the anabolic and androgenic activities of the androgen receptor for therapeutic benefit” (J Med Chem, 2009).

Assays:
Rattus norvegicus [1] = organism: Rattus norvegicus; experiment: Myotropic activity in rat assessed as ventral prostate weight by Hershberger assay relative to intact tissue; type: functional, Prostate gland
Rattus norvegicus [2] = organism: Rattus norvegicus; experiment: Myotropic activity in rat assessed as levator ani muscle weight by Hershberger assay relative to intact tissue; type: functional
Rattus norvegicus [3] = organism: Rattus norvegicus; experiment: Suppression of hyphalamic-pituitary-gonadal axis in rat; type: functional
Rattus norvegicus [4] = experiment: Myotropic activity in rat assessed as ventral prostate weight at 10 mg/kg by Hershberger assay; type: functional; conditions: Prostate gland
Rattus norvegicus [5] = organism: Rattus norvegicus; experiment: Myotropic activity in rat assessed as levator ani muscle weight at 10 mg/day by Hershberger assay relative to intact tissue; type: functional
Rattus norvegicus [6] = experiment: Myotropic activity in rat assessed as ventral prostate weight by modified Hershberger assay at 10 mg/kg; type: functional; conditions: Prostate gland
Rattus norvegicus [7] = experiment: Suppression of hyphalamic-pituitary-gonadal axis in rat assessed as reduction in follicle-stimulating hormone level at 30 mg/kg; type: functional
Rattus norvegicus [8] = experiment: Myotropic activity in rat assessed as ventral prostate weight by modified Hershberger assay at 3 mg/kg; type: functional; conditions: Prostate gland
Rattus norvegicus [9] = organism: Rattus norvegicus; experiment: Myotropic activity in rat assessed as levator ani muscle weight at 3 mg/day by modified Hershberger assay relative to intact tissue; type: functional
Rattus norvegicus [10] = organism: Rattus norvegicus; experiment: Reduction in testes weight in intact rat at 5 ug/day; type: functional, Testis; parameters: scale not given: the % may be the effect or the level left
[11] = Oral bioavailability in rat at 10 mg/kg; type: ADME, organism-based; conditions: in vivo
Rattus norvegicus [12] = organism: Rattus norvegicus; experiment: Myotropic activity in rat assessed as seminal vesicle weight by Hershberger assay relative to intact tissue; type: functional; conditions: for Emax: Rattus norvegicus, Seminal vesicle
Rattus norvegicus [13] = organism: Rattus norvegicus; experiment: Myotropic activity in rat assessed as ventral prostate weight at 0.3 mg/day by Hershberger assay; type: functional, Prostate gland
[14] = Volume of distribution at steady state in iv dosed rat; type: ADME, organism-based; conditions: in vivo, read-out: Vdss
[15] = Terminal half life in iv dosed rat; type: ADME, organism-based; conditions: in vivo, read-out: beta t1/2 (converted)
[16] = Clearance in iv dosed rat; type: ADME, organism-based; conditions: in vivo
Rattus norvegicus [17] = experiment: Myotropic activity in rat assessed as ventral prostate weight at 100 mg/kg by Hershberger assay; type: functional; conditions: Prostate gland
Rattus norvegicus [18] = experiment: Myotropic activity in rat assessed as ventral prostate weight at 30 mg/kg by Hershberger assay; type: functional; conditions: Prostate gland
[19] = Half life in human; type: ADME, organism-based; conditions: in vivo
Rattus norvegicus [20] = organism: Rattus norvegicus; experiment: Myotropic activity in rat assessed as levator ani muscle weight at 30 mg/day by Hershberger assay relative to intact tissue; type: functional
Rattus norvegicus [21] = organism: Rattus norvegicus; experiment: Osteoanabolic effect in rat assessed as reduction in osteocalcin level relative to basal level; type: functional; parameters: scale not given: the % may be the effect or the level left
[22] = Oral bioavailability in dog; type: ADME, organism-based, Canis lupus familiaris; conditions: in vivo
Rattus norvegicus [23] = experiment: Myotropic activity in rat assessed as ventral prostate weight at 3 mg/kg administered in 12 week atrophy followed by 8 weeks treatment schedule by Hershberger assay; type: functional, Prostate gland
Rattus norvegicus [24] = experiment: Myoanabolic activity in castrated rat assessed as restored soleus muscle strength at 10 mg/kg; type: functional
Rattus norvegicus [25] = experiment: Myoanabolic activity in castrated rat assessed as restored soleus muscle strength at 3 mg/kg; type: functional
Rattus norvegicus [26] = organism: Rattus norvegicus; experiment: Myotropic activity in intact rat assessed as reduction in ventral prostate weight by Hershberger assay; type: functional, Prostate gland; parameters: scale not given: the % may be the effect or the level left
Androgen receptor = biological target: T1, Androgen receptor (Homo sapiens, UniProt P10275)
T1 sequence (P10275 whole entry): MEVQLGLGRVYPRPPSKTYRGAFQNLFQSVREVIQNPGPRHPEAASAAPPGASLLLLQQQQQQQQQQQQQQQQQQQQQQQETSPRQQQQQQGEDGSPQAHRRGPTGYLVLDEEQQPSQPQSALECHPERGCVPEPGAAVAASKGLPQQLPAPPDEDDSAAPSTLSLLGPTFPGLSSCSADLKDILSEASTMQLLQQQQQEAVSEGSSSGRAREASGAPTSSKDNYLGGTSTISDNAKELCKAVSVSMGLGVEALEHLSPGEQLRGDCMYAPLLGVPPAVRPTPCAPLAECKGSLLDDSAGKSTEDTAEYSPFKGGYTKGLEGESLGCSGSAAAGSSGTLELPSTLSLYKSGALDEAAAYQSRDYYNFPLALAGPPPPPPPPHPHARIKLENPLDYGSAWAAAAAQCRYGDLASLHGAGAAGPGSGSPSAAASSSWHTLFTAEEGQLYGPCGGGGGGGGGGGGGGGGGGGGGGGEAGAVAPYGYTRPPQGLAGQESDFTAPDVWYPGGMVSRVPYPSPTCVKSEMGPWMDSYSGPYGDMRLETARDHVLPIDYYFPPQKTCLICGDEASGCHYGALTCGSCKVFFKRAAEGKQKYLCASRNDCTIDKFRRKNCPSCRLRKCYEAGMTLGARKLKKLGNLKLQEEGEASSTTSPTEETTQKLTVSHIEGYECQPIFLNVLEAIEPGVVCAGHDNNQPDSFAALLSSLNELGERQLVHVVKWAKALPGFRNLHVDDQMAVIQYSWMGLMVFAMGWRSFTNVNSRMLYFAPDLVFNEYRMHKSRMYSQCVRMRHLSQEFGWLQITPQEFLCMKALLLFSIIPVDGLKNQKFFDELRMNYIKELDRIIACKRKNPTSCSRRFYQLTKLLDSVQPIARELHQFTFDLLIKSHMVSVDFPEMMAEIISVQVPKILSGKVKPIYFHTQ
Description: Agonist activity at androgen receptor

Rattus norvegicus [27] = organism: Rattus norvegicus; experiment: Restoration of lean body mass in intact rat; type: functional
Rattus norvegicus [28] = experiment: Suppression of hyphalamic-pituitary-gonadal axis in rat at 3 mg/kg; type: functional
[29] = Rattus norvegicus, Prostate gland
[30] = Rattus norvegicus, Prostate gland, read-out: ED50
[31] = Rattus norvegicus, Levator ani muscle
[32] = Rattus norvegicus, Levator ani muscle, read-out: ED50

## Cc1c(N2C(=O)[C@@H]3[C@H](O)CCN3C2=O)ccc(C#N)c1Cl
Rattus norvegicus [1]; [29]
  Emax: 105%
Rattus norvegicus [1]; [30]
  ED50: 0.14 mg/kg
Rattus norvegicus [2]; [31]
  Emax: 125%
Rattus norvegicus [2]; [32]
  ED50: 0.009 mg/kg
Rattus norvegicus [3]
  ED50: 0.008 mg/kg

## Cc1c(N2C(=O)[C@@H]3[C@H](O)CCN3S2(=O)=O)ccc(C#N)c1Cl
Rattus norvegicus [4]
  Emax at 10 mg/kg: 8%
Rattus norvegicus [5]
  Emax: 68%

## C[C@@]1(C(=O)Nc2ccc(C#N)c(C(F)(F)F)c2)CC(C(F)(F)F)=NN1
Rattus norvegicus [6]
  Emax at 10 mg/kg: 26%
Rattus norvegicus [7]
  Emax at 30 mg/kg: 40%
Rattus norvegicus [2]; [32]
  ED50: 3.8 mg/kg
Rattus norvegicus [5]
  Emax: 100%

## C[C@@]12CC(C(F)(F)F)=NN1C(=O)N(c1ccc(C#N)c(C(F)(F)F)c1)C2=O
Rattus norvegicus [2]
  ED50: 2.9 mg/day
Rattus norvegicus [2]; [31]
  Emax: 75%
Rattus norvegicus [8]
  Emax at 3 mg/kg: 11%

## C[C@@]12CC(C(F)(F)F)=NN1[S+]([O-])N(c1ccc(C#N)c(C(F)(F)F)c1)C2=O (some centres not stated)
Rattus norvegicus [9]
  Emax: 117%
Rattus norvegicus [8]
  Emax at 3 mg/kg: 58%

## C[C@](O)(COc1ccc(Cl)c(F)c1)C(=O)Nc1ccc(C#N)c(C(F)(F)F)c1
Rattus norvegicus [1]
  ED50: 0.43 mg/day
Rattus norvegicus [1]; [29]
  Emax: 138%
Rattus norvegicus [10]
  Activity: 94%
[11]
  bioavailability: 96%
Rattus norvegicus [12]
  ED50: 0.41 mg/day
  Emax: 144%
Rattus norvegicus [13]
  Activity: 79.4%
Rattus norvegicus [2]; [31]
  Emax: 139%
[14]
  Vd: 0.66 L/kg
[15]
  half-life: 11.9 h
[16]
  clearance: 0.87 mL/min/kg

## CCC(=O)O[C@H]1CC[C@H]2[C@@H]3CCC4=CC(=O)CC[C@]4(C)[C@H]3CC[C@]12C [TESTOSTERONE PROPIONATE]
Rattus norvegicus [1]
  ED50: 0.13 mg/day
Rattus norvegicus [1]; [29]
  Emax: 120%
Rattus norvegicus [12]
  ED50: 0.12 mg/day
  Emax: 70%
Rattus norvegicus [2]; [31]
  Emax: 104%

## C[C@]12CC[C@H]3[C@@H](CCC4=CC(=O)CC[C@@]43C)[C@@H]1CC[C@@H]2O [TESTOSTERONE]
Rattus norvegicus [1]
  ED50: 0.13 mg/day
Rattus norvegicus [1]; [29]
  Emax: 120%
Rattus norvegicus [2]
  ED50: 0.15 mg/day
Rattus norvegicus [2]; [31]
  Emax: 104%

## CC[C@@H]1COc2c(ccc3[nH]c(=O)cc(C(F)(F)F)c23)N1CC(F)(F)F
Rattus norvegicus [2]
  ED50: 70 mg/day
Rattus norvegicus [5]
  Emax: 100%
Rattus norvegicus [17]
  Emax at 100 mg/kg: 80%

## N#Cc1ccc(N2[C@@H]3CC[C@H]2C[C@@H](O)C3)c2ccccc12
Rattus norvegicus [18]
  Emax at 30 mg/kg: 27%
Rattus norvegicus [2]; [31]
  Emax: 66%
Rattus norvegicus [2]; [32]
  ED50: 17.3 mg/kg
Rattus norvegicus [3]
  ED50: 2.8 mg/kg
  Emax: 117%

## C[C@](O)(COc1ccc(F)cc1)C(=O)Nc1ccc([N+](=O)[O-])c(C(F)(F)F)c1
Rattus norvegicus [1]
  ED50: 0.42 mg/day
Rattus norvegicus [1]; [29]
  Emax: 14.9%
[11]
  bioavailability: 55%
Rattus norvegicus [12]
  ED50: 0.38 mg/day
  Emax: 13.4%
Rattus norvegicus [2]
  ED50: 0.44 mg/day
Rattus norvegicus [2]; [31]
  Emax: 75%
[14]
  Vd: 1.5 L/kg
[15]
  half-life: 3.6 h
[16]
  clearance: 3.6 mL/min/kg

## CC[C@H]1[C@@H]2[C@@H](O)CCN2C(=O)N1c1ccc(C#N)c(Cl)c1C
Rattus norvegicus [1]; [29]
  Emax: 65%
Rattus norvegicus [1]; [30]
  ED50: 4.6 mg/kg
Rattus norvegicus [2]; [31]
  Emax: 120%
Rattus norvegicus [2]; [32]
  ED50: 0.09 mg/kg

## C[C@](O)(CS(=O)(=O)c1ccc(F)cc1)C(=O)Nc1ccc(C#N)c(C(F)(F)F)c1 [(R)-BICALUTAMIDE]
[19]
  half-life: 140 h

## CN(C)C1CC(C(C)(C)CO)Nc2ccc([N+](=O)[O-])cc21 (configuration not stated)
Rattus norvegicus [18]
  Emax at 30 mg/kg: 80%
Rattus norvegicus [20]
  Emax: 115%

## CC(=O)Nc1ccc(OC[C@](C)(O)C(=O)Nc2ccc([N+](=O)[O-])c(C(F)(F)F)c2)cc1
Rattus norvegicus [1]
  ED50: 0.43 mg/day
Rattus norvegicus [1]; [29]
  Emax: 35.2%
Rattus norvegicus [21]
  Activity: 70%
[11]
  bioavailability: 100%
[22]
  bioavailability: 91%
Rattus norvegicus [12]
  ED50: 0.55 mg/day
  Emax: 28.5%
Rattus norvegicus [2]
  ED50: 0.14 mg/day
Rattus norvegicus [2]; [31]
  Emax: 101%
[14]
  Vd: 0.42 L/kg
[15]
  half-life: 2.6 h
Rattus norvegicus [23]
  Activity: 20%
Rattus norvegicus [24]
  Activity: 156 kN/m2
Rattus norvegicus [25]
  Activity: 120 kN/m2
[16]
  clearance: 1 mL/min/kg

## C[C@]12CCC(=O)C[C@@H]1CC[C@@H]1[C@@H]2CC[C@]2(C)[C@@H](O)CC[C@@H]12 [STANOLONE]
Rattus norvegicus [21]
  Activity: 50%
Rattus norvegicus [23]
  Activity: 200%
Rattus norvegicus [25]
  Activity: 138 kN/m2

## C=C[C@@](O)(c1nc2cc(Cl)c(Cl)cc2[nH]1)C(F)(F)F
Rattus norvegicus [26]
  Activity: 46%
Androgen receptor
  Ki: 1.1 nM
Rattus norvegicus [27]
  Activity: 20%
Rattus norvegicus [2]; [31]
  Emax: 101%
Rattus norvegicus [2]; [32]
  ED50: 0.8 mg/kg
Rattus norvegicus [8]
  Emax at 3 mg/kg: 21%

## C[C@@H]1CC[C@H]([C@@H](O)C(F)(F)F)N1c1ccc2[nH]c(=O)cc(C(F)(F)F)c2c1 [LGD-2941]
Rattus norvegicus [4]
  Emax at 10 mg/kg: 100%
Rattus norvegicus [5]
  Emax: 180%

## CC(=O)Nc1ccc(SC[C@](C)(O)C(=O)Nc2ccc(C#N)c(C(F)(F)F)c2)cc1 [ACETOTHIOLUTAMIDE]
Rattus norvegicus [1]
  Activity: 20%
Rattus norvegicus [12]
  Activity: 50%

## O=c1cc(C(F)(F)F)c2cc(N(CC(F)(F)F)CC(F)(F)F)ccc2[nH]1
Rattus norvegicus [2]; [31]
  Emax: 150%
Rattus norvegicus [28]
  Emax at 3 mg/kg: 100%
Rattus norvegicus [17]
  Emax at 100 mg/kg: 100%

## C[C@]12CC(C(F)(F)F)=NN1C(N)=N/C2=N\c1ccc(C#N)c(C(F)(F)F)c1
Rattus norvegicus [1]; [29]
  Emax: 31%
Rattus norvegicus [1]; [30]
  ED50: > 30 mg/kg
Rattus norvegicus [26]
  Activity: 26%
Rattus norvegicus [2]; [31]
  Emax: 91%
Rattus norvegicus [2]; [32]
  ED50: 2.8 mg/kg
